# Key:
# Assay in all cases: relative viability (nuclei count vs DMSO), 5 days (fraction); higher = more cells survive
# [1] = compound: O=C(CCCCCCC(=O)Nc1ccccc1)NO [Vorinostat] + COc1cc2c(Oc3ccc(NC(=O)C4(C(=O)Nc5ccc(F)cc5)CC4)cc3F)ccnc2cc1OCCCN1CCOCC1 [Foretinib] (partner 0.25 µM)
# Method in brief: (§1)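 Each reported value is a median over duplicate plates. It expresses relative viability: treated-well nuclei count divided by vehicle-well nuclei count. Lung cancer cell lines in 1536-well plates were dosed by pin tool a day after seeding, alone with one drug or with a fixed anchor-drug dose plus five library-drug doses (not always all listed) in √10 steps, and nuclei were counted after 5 days.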
# [2] = compound: O=C(CCCCCCC(=O)Nc1ccccc1)NO [Vorinostat] + C[C@]1(O)C[C@@H](c2nc(-c3ccc4ccc(-c5ccccc5)nc4c3)c3c(N)nccn32)C1 [Linsitinib] (partner 1 µM)
# Method in brief: as §1
# [3] = compound: O=C(CCCCCCC(=O)Nc1ccccc1)NO [Vorinostat] + NC(=O)Nc1cc(-c2cccc(F)c2)sc1C(=O)N[C@H]1CCCNC1 [AZD7762] (partner 0.2 µM)
# Method in brief: as §1
# [4] = compound: O=C(CCCCCCC(=O)Nc1ccccc1)NO [Vorinostat] + CS(=O)(=O)N1CCN(Cc2cc3nc(-c4cccc5[nH]ncc45)nc(N4CCOCC4)c3s2)CC1 [Pictilisib] (partner 1 µM)
# Method in brief: as §1
# [5] = compound: O=C(CCCCCCC(=O)Nc1ccccc1)NO [Vorinostat] + Cc1cc(Nc2cc(N3CCN(C)CC3)nc(Sc3ccc(NC(=O)C4CC4)cc3)n2)n[nH]1 [Tozasertib] (partner 0.1 µM)
# Method in brief: as §1
Cell Line,relative viability ([1]; first compound 0.253 µM),relative viability ([1]; first compound 0.8 µM),relative viability ([1]; first compound 2.53 µM),relative viability ([1]; first compound 8 µM),relative viability ([2]; first compound 0.253 µM),relative viability ([2]; first compound 0.8 µM),relative viability ([2]; first compound 2.53 µM),relative viability ([2]; first compound 8 µM),relative viability ([3]; first compound 0.253 µM),relative viability ([3]; first compound 2.53 µM),relative viability ([3]; first compound 8 µM),relative viability ([4]; first compound 0.253 µM),relative viability ([4]; first compound 0.8 µM),relative viability ([4]; first compound 2.53 µM),relative viability ([4]; first compound 8 µM),relative viability ([5]; first compound 0.253 µM),relative viability ([5]; first compound 0.8 µM),relative viability ([5]; first compound 2.53 µM),relative viability ([5]; first compound 8 µM),relative viability ([3]; first compound 0.8 µM)
NCI-H1703,0.418,0.599,0.632,0.277,1.14,0.846,0.953,0.206,0.126,0.189,0.0985,0.31,0.233,0.363,0.2,–,–,–,–,–
A549,0.929,0.478,0.0393,0.0151,0.673,0.651,0.194,0.0382,–,–,–,0.601,0.4,0.0772,0.0417,–,–,–,–,–
HCC-366,1.03,0.333,0.0524,0.0624,0.637,0.545,0.0527,0.0206,0.459,0.0622,0.0231,0.132,0.191,0.0894,0.037,0.0967,0.0579,0.033,0.031,0.195
COR-L23,1.02,0.671,0.152,0.0834,0.899,0.468,0.0916,0.0663,–,–,–,0.728,0.451,0.0944,0.0511,0.19,0.0976,0.105,0.0594,–
PC-14,1.15,1.04,0.62,0.0829,1.01,0.911,0.323,0.112,0.33,0.106,0.0453,0.959,0.438,0.0673,0.0418,0.586,0.389,0.0619,0.018,0.288
SW 1573,1.29,1.07,0.75,0.15,0.986,0.978,0.421,0.13,–,–,–,0.543,0.45,0.24,0.0767,0.19,0.266,0.155,0.0644,–
LK-2,1.03,0.896,0.28,0.137,0.58,0.328,0.143,0.0894,0.334,0.126,0.0415,0.48,0.379,0.211,0.132,0.179,0.178,0.157,0.125,0.373
RERF-LC-KJ,1,0.791,0.743,0.248,0.983,0.855,0.694,0.168,1.06,0.379,0.211,0.562,0.474,0.182,0.164,0.442,0.318,0.262,0.213,0.977
NCI-H2347,1.02,0.84,0.587,0.198,0.992,0.982,0.766,0.306,0.595,0.456,0.226,0.696,0.377,0.199,0.211,0.66,0.432,0.244,0.203,0.696
NCI-H1792,–,–,–,–,0.57,0.376,0.148,0.0672,0.568,0.0683,0.0252,0.283,0.179,0.0803,0.0579,–,–,–,–,0.29
HOP-62,1.03,1.1,0.365,0.122,1.17,0.769,0.528,0.0603,0.258,0.145,0.0514,0.966,0.205,0.203,0.079,0.405,0.32,0.116,0.08,0.518
NCI-H1650,1.1,1,0.648,0.14,–,–,–,–,–,–,–,0.542,0.283,0.181,0.124,0.478,0.293,0.168,0.152,–
NCI-H1666,0.982,0.906,0.387,0.349,0.864,0.707,0.33,0.227,0.778,0.461,0.322,0.363,0.283,0.206,0.128,0.499,0.346,0.307,0.259,0.826
HCC-78,0.683,0.448,0.221,0.221,0.547,0.238,0.135,0.107,0.451,0.223,0.199,0.25,0.128,0.117,0.134,0.384,0.268,0.167,0.2,0.464
HCC-44,–,–,–,–,0.727,0.621,0.167,0.103,1.01,0.879,0.526,0.603,0.411,0.308,0.0904,1.1,0.296,0.184,0.141,1.02
BEN,0.8,0.414,0.149,0.0734,0.985,0.543,0.156,0.0466,0.645,0.439,0.125,0.659,0.332,0.132,0.0393,0.463,0.441,0.248,0.0886,0.661
HCC-15,1.12,0.979,0.464,0.102,0.87,0.917,0.514,0.0962,1.39,1.06,0.363,0.811,0.608,0.472,0.108,0.294,0.219,0.101,0.0559,1.11
NCI-H1395,1.09,1.09,0.822,0.427,1.31,1.22,0.725,0.344,0.37,0.375,0.296,0.637,0.619,0.427,0.362,1.02,0.682,0.456,0.324,0.373
NCI-H2009,1.28,1.22,0.716,0.143,1.27,1.07,0.707,0.177,–,–,–,1.3,0.747,0.346,0.0949,0.776,0.574,0.295,0.133,–

Cell Line,relative viability ([1]; first compound 0.253 µM),relative viability ([1]; first compound 0.8 µM),relative viability ([1]; first compound 2.53 µM),relative viability ([1]; first compound 8 µM),relative viability ([2]; first compound 0.253 µM),relative viability ([2]; first compound 0.8 µM),relative viability ([2]; first compound 2.53 µM),relative viability ([2]; first compound 8 µM),relative viability ([3]; first compound 0.253 µM),relative viability ([3]; first compound 2.53 µM),relative viability ([3]; first compound 8 µM),relative viability ([4]; first compound 0.253 µM),relative viability ([4]; first compound 0.8 µM),relative viability ([4]; first compound 2.53 µM),relative viability ([4]; first compound 8 µM),relative viability ([5]; first compound 0.253 µM),relative viability ([5]; first compound 0.8 µM),relative viability ([5]; first compound 2.53 µM),relative viability ([5]; first compound 8 µM),relative viability ([3]; first compound 0.8 µM)
UMC-11,1.12,0.465,0.121,0.103,1,0.6,0.164,0.0865,–,–,–,0.975,0.29,0.0923,0.0756,0.195,0.164,0.147,0.129,–
HARA,0.965,0.495,0.151,0.0596,1.13,0.948,0.254,0.101,0.2,0.146,0.125,0.483,0.447,0.132,0.102,0.139,0.104,0.0618,0.0739,0.245
LC-2-ad,0.984,0.681,0.268,0.145,0.868,0.606,0.13,0.136,0.867,0.226,0.159,0.568,0.292,0.0981,0.0042,0.418,0.303,0.217,0.147,0.632
NCI-H1437,1.25,1.22,0.546,0.171,1.19,0.789,0.138,0.0938,1.23,0.426,0.197,0.466,0.167,0.107,0.088,0.371,0.338,0.18,0.104,0.9
NCI-H2126,1.14,0.968,0.365,0.235,0.581,0.68,0.456,0.224,0.999,0.774,0.208,0.495,0.42,0.334,0.221,0.731,0.444,0.212,0.171,0.989
NCI-H460,1.09,0.927,0.0567,0.0329,0.902,0.544,0.0315,0.0069,0.348,0.0499,0.0349,0.37,0.279,0.208,0.0481,0.593,0.0486,0.0314,0.0259,0.446
CAL-12T,1.34,1.14,0.721,0.119,0.923,0.759,0.563,0.147,0.639,0.337,0.162,0.48,0.435,0.209,0.149,0.446,0.246,0.162,0.109,0.603
SK-LU-1,0.881,0.829,0.385,0.137,1.11,1.02,0.64,0.211,–,–,–,0.595,0.55,0.351,0.133,0.303,0.186,0.143,0.101,–
IA-LM,1.17,1.14,0.342,0.039,0.685,0.271,0.212,0.0566,–,–,–,0.309,0.25,0.114,0.0475,–,–,–,–,–
NCI-H2170,0.982,1.04,0.675,0.526,–,–,–,–,1.23,0.332,0.106,0.348,0.235,0.209,0.185,0.729,0.462,0.147,0.155,0.923
SK-MES-1,1.14,1.04,0.778,0.249,1.09,1.02,0.495,0.21,–,–,–,0.469,0.349,0.231,0.0945,0.86,0.662,0.235,0.136,–
NCI-H661,1.11,0.843,0.447,0.298,0.759,0.752,0.298,0.184,–,–,–,0.557,0.696,0.462,0.214,0.342,0.262,0.249,0.269,–
NCI-H1563,0.999,0.833,0.574,0.52,1.19,1.03,0.749,0.525,–,–,–,0.682,0.637,0.68,0.592,–,–,–,–,–
SW 900,0.925,0.927,0.644,0.111,–,–,–,–,0.606,0.229,0.0892,–,–,–,–,0.584,0.315,0.213,0.113,0.418
NCI-H2023,1.13,0.82,0.31,0.0629,0.841,0.682,0.296,0.0892,–,–,–,0.221,0.214,0.128,0.0818,0.364,0.215,0.11,0.0623,–
NCI-H520,0.965,0.791,0.555,0.179,1.15,0.841,0.293,0.12,–,–,–,0.369,0.213,0.21,0.146,0.422,0.37,0.207,0.209,–
COR-L 105,1.27,0.996,0.915,0.246,1.1,1.16,0.394,0.222,–,–,–,0.438,0.261,0.262,0.201,0.458,0.331,0.245,0.213,–
NCI-H2228,0.917,0.537,0.311,0.0906,0.805,0.542,0.425,0.0918,–,–,–,0.649,0.223,0.142,0.138,0.199,0.103,0.0837,0.0871,–

# — the supplement of paper PMC10307832
